Assay results from EP2444091B1, “USE OF T[…] MELIA AZEDARACH EXTRACTS FOR PREVENTING OR TREATING DEMENTIA” (Ildong Pharm Co., Ltd., priority 2009, dated 2010).

Assays:
[1] = tested on: APPα and APPβ (APP metabolites); assay: APPα and APPβ production in culture medium by western blot, BA-3 cell line overexpressing BACE1 and APP695; type: cell-based
Description: A HEK293-derived BA-3 cell line overexpressing BACE1(β-secretase) and APP695 was plated on 6-well plate by using DMEM (Dulbecco's Modified Eagle's Medium) including 10% fetal bovin serum (FBS) in such a manner that it occupied 80% or more of the area in each well, and then was cultured for 1 day. After the removal of the culture medium, free DMEM (not including fetal bovine serum) was heated to 37°C, and added in an amount of 0.9ml to each well. Then, toosendanin or a toosendan fructus fraction extracted with each solvent was diluted to an appropriate concentration by 0.1ml free DMEM, and the cell line was treated with these materials, and cultured for 24 hours. 0.2ml of the culture medium treated with each test sample was collected, and subjected to electrophoresis by 8% SDS-PAGE (polyacrylamide gel electrophoresis). Then, AB1560(monoclonal) and Rb53(polyclonal) antibodies (antibodies against APPα and APPβ) were used to measure the amounts of APPα and APPβ within the culture medium through western blotting.
Extracts (ethyl alcohol, methanol, ethyl acetate, and 90% methanol) of meliae cortex (bark of chinaberry) were obtained under the same organic solvent extraction condition of toosendan fructus. Then, their effects on APPβ production reduction were tested.
On the toosendan fructus ethyl alcohol extract obtained from Example 9-1, an APPβ production reducing effect, an APPα production promoting effect, and an Aβ production inhibiting effect were measured in the same manner as described in Example 5.

[2] = tested on: Aβ40; assay: Aβ40 quantification in rat serum before/after oral administration; type: in vivo; conditions: 5mg/kg oral, blood after two hours
Description: Before administration of toosendanin, blood was secured. Then, toosendanin suspended in 20% ethyl alcohol was orally administered in doses of 5 and 50mg/kg. After two hours, the blood was collected, and the concentration change of Aβ within the blood before/after administration was measured. The collected blood was centrifuged (16,000×g, 20 minutes, 4°C), and Aβ40 within the collected serum was quantified by using an Aβ40 quantitative analysis kit (Mouse/Rat Amyloidβ (1-40) High Specific Assay Kit, IBL, Japan).

[3] = concentration of 12.5nM or less

For `CC(=O)O[C@@H]1C[C@H](O)[C@@]23CO[C@@H](O)[C@]1(C)[C@@H]2C[C@@H](O)[C@]1(C)[C@@H]3C(=O)[C@H](OC(C)=O)[C@@]2(C)[C@H](c3ccoc3)C[C@H]3O[C@]321` [toosendanin], which “production of APPα with respect to a non-treated group” value ([1]; at 0.8uM, 24 hours) is on record?
Its value is 141.5%.

And the “production of APPβ with respect to a non-treated group” value ([1]; at 0.8uM, 24 hours)?
The value was 17.8%.

And the “production of APPα” value [1, 3]?
Its value is “promoting the production of APPα”.

And the “production of APPβ” value [1, 3]?
The value was “inhibited the production of APPβ”.

And the “inhibition of Aβ40 in serum” value [2]?
Its value is no less than 85%.
